Converted amounts (≈) assume the structure as drawn.
Legend:
Escherichia coli = test: Antibacterial activity against enteropathogenic Escherichia coli; assay type: functional, organism-based
[1] = Inhibition of bacterial type III secretion system in enteropathogenic Escherichia coli

C/C=C\C=C\[C@@H]1O[C@](O)([C@H](CC)C(=O)NC/C=C/C=C(\C)[C@@H](OC)[C@@H](C)[C@@H]2O[C@H](/C=C/C=C/C=C(\C)C(=O)c3c(O)ccn(C)c3=O)[C@H](O)[C@@H]2O)[C@H](O)[C@H](O)C1(C)C.[MgH2]
IC50 (Escherichia coli): 30.6 µg/mL
IC50 [1]: 1.75 µg/mL

C/C=C\C=C\[C@@H]1O[C@](O)([C@H](CC)C(=O)NC/C=C/C=C(\C)[C@@H](OC)[C@@H](C)[C@@H]2O[C@H](/C=C/C=C/C=C(\C)C(=O)c3c(OC(C)=O)ccn(C)c3=O)[C@H](O)[C@@H]2O)[C@H](O)[C@H](O)C1(C)C
IC50 (Escherichia coli): 36.1 µg/mL (≈ 42.3 µM)
IC50 [1]: 1.43 µg/mL (≈ 1.68 µM)

C/C=C\C=C\[C@@H]1O[C@](O)([C@H](CC)C(=O)NC/C=C/C=C(\C)[C@@H](OC)[C@@H](C)[C@@H]2O[C@H](/C=C/C=C/C=C(\C)C(=O)c3c(OS(=O)(=O)c4ccc(C)cc4)ccn(C)c3=O)[C@H](O)[C@@H]2O)[C@H](O)[C@H](O)C1(C)C
IC50 (Escherichia coli): > 100 µg/mL
IC50 [1]: 19 µg/mL (≈ 19.7 µM)

C/C=C\C=C\[C@@H]1O[C@]2(O)C(CC)C(=O)O[C@@H]2[C@H](O)C1(C)C (some centres not stated)
IC50 (Escherichia coli): > 100 µg/mL
IC50 [1]: > 100 µg/mL

C/C=C\C=C\[C@@H]1O[C@](O)([C@H](CC)C(=O)NC/C=C/C=C(\C)[C@@H](OC)[C@@H](C)[C@@H]2O[C@H](/C=C/C=C/C=C(\C)C(=O)c3c([O-])ccn(C)c3=O)[C@H](O)[C@@H]2O)[C@H](O)[C@H](O)C1(C)C.[Na+]
IC50 (Escherichia coli): 53.9 µg/mL
IC50 [1]: 2.29 µg/mL

C/C=C\C=C\[C@@H]1O[C@](O)([C@H](CC)C(=O)NC/C=C/C=C(\C)[C@@H](OC)[C@@H](C)[C@@H]2O[C@H](/C=C/C=C/C=C(\C)C(=O)c3c(O)ccn(C)c3=O)[C@H](O)[C@@H]2O)[C@H](O)[C@H](O)C1(C)C
IC50 (Escherichia coli): 32.8 µg/mL (≈ 40.4 µM)
IC50 [1]: 1.42 µg/mL (≈ 1.75 µM)

C/C=C\C=C\[C@@H]1O[C@](O)([C@H](CC)C(=O)NC/C=C/C=C(\C)[C@@H](OC)[C@@H](C)[C@@H]2O[C@H](/C=C/C=C/C=C(\C)C(=O)c3c(OCOC(N)=O)ccn(C)c3=O)[C@H](O)[C@@H]2O)[C@H](O)[C@H](O)C1(C)C
IC50 (Escherichia coli): > 100 µg/mL
IC50 [1]: 10.4 µg/mL (≈ 11.8 µM)

C/C=C\C=C\[C@@H]1O[C@](O)([C@H](CC)C(=O)NC/C=C/C=C(\C)[C@@H](OC)[C@@H](C)[C@@H]2O[C@H](/C=C/C=C/C=C(\C)C(=O)c3c(O)ccn(C)c3=O)[C@@H]3OC(=O)O[C@@H]32)[C@H](O)[C@H](O)C1(C)C
IC50 (Escherichia coli): > 100 µg/mL
IC50 [1]: > 100 µg/mL

C/C=C\C=C\[C@@H]1O[C@](O)([C@H](CC)C(=O)NC/C=C/C=C(\C)[C@@H](OC)[C@@H](C)[C@@H]2O[C@H](/C=C/C=C/C=C(\C)C(=O)c3c([O-])ccn(C)c3=O)[C@H](O)[C@@H]2O)[C@H](O)[C@H](O)C1(C)C.[Li+]
IC50 (Escherichia coli): 49.5 µg/mL
IC50 [1]: 2.52 µg/mL

C/C=C\C=C\[C@@H]1O[C@](O)([C@H](CC)C(=O)NC/C=C/C=C(\C)[C@@H](OC)[C@@H](C)[C@@H]2O[C@H](/C=C/C=C/C=C(\C)C(=O)c3c(OC)ccn(C)c3=O)[C@H](O)[C@@H]2O)[C@H](O)[C@H](O)C1(C)C
IC50 (Escherichia coli): > 100 µg/mL
IC50 [1]: 4.82 µg/mL (≈ 5.84 µM)

C/C=C\C=C\[C@@H]1O[C@](O)([C@H](CC)C(=O)NC/C=C/C=C(\C)[C@@H](OC)[C@@H](C)[C@@H]2O[C@H](/C=C/C=C/C=C(\C)C(=O)c3c(OC(=O)c4ccccc4)ccn(C)c3=O)[C@H](O)[C@@H]2O)[C@H](O)[C@H](O)C1(C)C
IC50 (Escherichia coli): > 100 µg/mL
IC50 [1]: 1.45 µg/mL (≈ 1.58 µM)

CO[C@H](/C(C)=C/C=C/CN)[C@@H](C)[C@@H]1O[C@H](/C=C/C=C/C=C(\C)C(=O)c2c(O)ccn(C)c2=O)[C@H](O)[C@@H]1O
IC50 (Escherichia coli): > 100 µg/mL
IC50 [1]: > 100 µg/mL

C=CCOc1ccn(C)c(=O)c1C(=O)/C(C)=C/C=C/C=C/[C@H]1O[C@@H]([C@H](C)[C@H](OC)/C(C)=C/C=C/CNC(=O)[C@@H](CC)[C@@]2(O)O[C@@H](/C=C/C=C\C)C(C)(C)[C@@H](O)[C@H]2O)[C@@H](O)[C@H]1O
IC50 (Escherichia coli): > 100 µg/mL
IC50 [1]: 4.16 µg/mL (≈ 4.89 µM)

C/C=C\C=C\[C@@H]1O[C@](O)([C@H](CC)C(=O)NC/C=C/C=C(\C)[C@@H](OC)[C@@H](C)[C@@H]2O[C@H](/C=C/C=C/C=C(\C)C(=O)c3c(OS(C)(=O)=O)ccn(C)c3=O)[C@H](O)[C@@H]2O)[C@H](O)[C@H](O)C1(C)C
IC50 (Escherichia coli): > 100 µg/mL
IC50 [1]: 4.65 µg/mL (≈ 5.23 µM)

C/C=C\C=C\[C@@H]1O[C@](O)([C@H](CC)C(=O)NC/C=C/C=C(\C)[C@@H](OC)[C@@H](C)[C@@H]2O[C@H](/C=C/C=C/C=C(\C)C(=O)c3c(OC(=O)CC)ccn(C)c3=O)[C@H](O)[C@@H]2O)[C@H](O)[C@H](O)C1(C)C
IC50 (Escherichia coli): 31.1 µg/mL (≈ 35.9 µM)
IC50 [1]: 1.19 µg/mL (≈ 1.37 µM)

C/C=C\C=C\[C@@H]1O[C@](O)([C@H](CC)C(=O)NC/C=C/C=C(\C)[C@@H](OC)[C@@H](C)[C@@H]2O[C@H](/C=C/C=C/C=C(\C)C(=O)c3c(O)ccn(C)c3=O)[C@@H]3OC(=O)O[C@@H]32)[C@@H]2OC(=O)O[C@@H]2C1(C)C
IC50 (Escherichia coli): > 100 µg/mL
IC50 [1]: > 100 µg/mL
